Data reported in patent US20180153830A1, “SELECTIVE INHIBITORS OF UNDIFFERENTIATED CELLS” (Yissum Research Development Company of the Hebrew …, priority 2012, published 2018).

Key:
[1] = tested on: CSES2-SO2/3-derived differentiated cells; experiment: Fluorescence microscopy imaging of differentiated CSES2-SO2/3 cells; type: cell-based, human; settings: 24 hours of exposure
Description: High content imaging of CSES2-SO2/3 fluorescent cells (mCherry+ or EGFP+) was performed in black clear-bottom 384-well assay plates (Falcon BD), using the Opera high-content screen imaging platform (PerkinElmer). Otherwise, light and fluorescence imaging of all cells was performed in 24-well, 6-well or 10 cm CELLSTAR® plates (Greiner Bio-One), using an Olympus CellR imaging station. Light imaging of developing mouse embryos was performed in 35 mm culture dishes (Falcon BD), using an Olympus IX70 microscope.
CSES2-SO2/3 is a genetically-labeled cell line that expresses mCherry under the promoter of the pluripotency hallmark gene OCT-4, and GFP under the promoter of the early endodermal marker SOX17. Therefore, these cells are red while undifferentiated, and become green upon their differentiation into the endodermal lineage [Kopper & Benvenisty, Stem Cell Research 8:335-345 (2011)]. Green early endodermal progenitor cells were generated from the red undifferentiated cells, using an 8-day differentiation protocol as described by Duan et al. [Stem Cells 28:674-686 (2010)].
In order to further verify the selectivity of the PluriSIns, and rule out any potential assay-related interference, undifferentiated and differentiated CSES2-SO2/3 cells were subjected to microscopy imaging after 24 hours of exposure to PluriSIns.

SCD1 = target: T1, SCD1 (Homo sapiens, UniProt O00767); experiment: In vitro biochemical screen for SCD1 inhibitors; settings: previous studies
T1 sequence (O00767 1-359): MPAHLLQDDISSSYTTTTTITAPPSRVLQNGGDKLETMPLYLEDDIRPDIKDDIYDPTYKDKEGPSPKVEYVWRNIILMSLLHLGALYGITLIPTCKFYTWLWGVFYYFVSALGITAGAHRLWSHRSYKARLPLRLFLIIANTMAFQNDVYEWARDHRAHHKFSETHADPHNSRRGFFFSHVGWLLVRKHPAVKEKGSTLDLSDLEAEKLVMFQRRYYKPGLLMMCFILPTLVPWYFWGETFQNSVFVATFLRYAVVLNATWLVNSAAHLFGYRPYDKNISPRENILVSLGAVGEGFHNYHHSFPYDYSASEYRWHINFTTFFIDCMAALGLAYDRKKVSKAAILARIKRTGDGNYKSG
Excerpt: Inhibition of SCD1 has been reported to induce ER stress and UPR in some human cancer cell lines, leading to apoptosis of these cells [Roongta et al., Molecular Cancer Research 9:1551-1561 (2011); Minville-Walz et al., PloS One 5:e14363 (2010); Scaglia et al., PloS One 4:e6812 (2009); Hess et al., PloS One 5:e1394 (2010); Morgan-Lappe et al., Cancer Research 67:4390-4398 (2007); Mason et al., PLoS One 7:e33823 (2012)].

hPSC-derived teratomas = experiment: Teratoma formation from pre-treated hPSCs in NOD-SCID IL2Rγ−/− mice; type: in vivo, mouse; settings: for teratoma formation at the side injected with pre-treated cells: cells pre-treated before injection into mice; for Incidence of teratoma formation, undifferentiated cells only: hPSCs pre-treated 48 h with 20 μM
Description: Human embryonic stem cell and induced pluripotent stem cell lines were cultured without feeder cells in CELLSTAR® 6-well tissue culture plates (Greiner Bio-One) pre-coated with Matrigel™, using mTeSR1 defined medium. Cells were treated for 24 hours with either 20 μM PluriSIn #1 (isonicotinic acid N′-phenylhydrazide) in 0.2% DMSO or with 0.2% DMSO, followed by medium replacement and a second treatment for another 24 hours. 48 hours after initial exposure to the tested compound, cells were harvested with trypsin-EDTA and resuspended in a 1:1 mTeSR1:Matrigel™ mixture to a total volume of 200 μl. Cells were then injected subcutaneously to the back of NOD-SCID IL2Rγ−/− mice (Jackson Laboratory). Six weeks after injection mice were sacrificed, the formation of tumors was examined, and the resulting teratomas were photographed, dissected and cryopreserved in O.C.T. compound (Sakura Finetek, Torrance, Calif.).
Alternatively, human embryonic stem cells and induced pluripotent stem cells were spontaneously differentiated in culture for a period of 10 days, by growing them on gelatin-coated culture plates with 85% knockout DMEM medium supplemented with 15% knockout serum replacement, 1 mM glutamine, 0.1 mM β-mercaptoethanol, 1% nonessential amino acids, penicillin (50 U/ml) and streptomycin (50 μg/ml), without basic fibroblast growth factor (bFGF). Retinoic acid was added to the medium at a final concentration of 1 μM. 10 days later, the differentiated cells were harvested and plated at a 1:1 ratio with their undifferentiated parental cells in CELLSTAR® 6-well tissue culture plates (Greiner Bio-One) pre-coated with Matrigel™, with mTeSR1 defined medium. Cells were treated for 24 hours with either 20 μM PluriSIn #1 or 0.2% DMSO, followed by medium replacement and a second treatment for another 24 hours. 48 hours after initial exposure to the compound, cells were harvested with trypsin-EDTA and counted using a Countess automated cell counter (Invitrogen). 1 million viable cells from each condition were resuspended in a 1:1 mTeSR1:Matrigel™ mixture to a total volume of 200 μl. Cells were then injected subcutaneously to the back of NOD-SCID IL2Rγ−/− mice. Each mouse was injected with PluriSIn #1-treated cells into one side of its body and control-treated cells into the other side. Six weeks after injection mice were sacrificed, the formation of tumors was examined, and the resulting teratomas were photographed, dissected and cryopreserved in O.C.T. compound.
To evaluate in vivo tumorigenicity, hPSCs were cultured under the abovementioned conditions in the presence or absence of PluriSIn #1, and the cultures were then injected subcutaneously into immuno-compromised NOD-SCID IL2Rγ−/− mice, which have been previously reported to be especially susceptible to human-derived tumors [Quintana et al., Nature 456:593-598 (2008)]. Mice were sacrificed after 4-6 weeks, and teratoma formation was then assessed.
Similarly, CSES2-SO2 and BJ-iPS28 cell lines were injected into immune-compromised mice (2 mice for each cell line), with control cells and treated cells being injected into the two body sides of the same animal.
The effect of PluriSIns was on teratoma formation was then evaluated in a model designed to simulate a clinical setting. Human ES and iPS cells were spontaneously differentiated in culture for a period of 10 days, and the differentiated cells were then harvested and plated together with undifferentiated cells, in a 1:1 mixture of undifferentiated and differentiated cells, as described in the Materials and Methods section. Following a 48 hour exposure to PluriSIn #1, cells were harvested and injected subcutaneously into NOD-SCID IL2Rγ−/− mice, with each mouse being injected with PluriSin #1-treated cells into one side of its body and with control cells into the other side. The same total number of cells was injected into both sides.

Structure (SMILES) | effect on differentiated cells [1] | SCD1 inhibition in an in vitro biochemical screen (SCD1) | Incidence of teratoma formation, 1:1 mixture of undifferentiated and differentiated cells (hPSC-derived teratomas; cells pre-treated 48 h with 20 μM, injected subcutaneously) | teratoma formation at the side injected with pre-treated cells (hPSC-derived teratomas) | Incidence of teratoma formation, undifferentiated cells only (hPSC-derived teratomas; injected subcutaneously) | Incidence of teratoma formation, undifferentiated cells only (hPSC-derived teratomas; injected subcutaneously, listed as PluriSn #1) | mice that developed teratomas, H9 ES cells (hPSC-derived teratomas; treated H9 ES cells injected)
O=C(NNc1ccccc1)c1ccncc1 [PluriSIn #1, isonicotinic acid N′-phenylhydrazide] | without exhibiting any detectable effect | possible direct inhibitors of SCD1 | 0/4 | no teratoma is visible | 11/11 | 0/11 | 0/3
Cc1ccc(NNC(=O)C(O)(c2ccccc2)c2cccs2)cc1 (stereo not shown) [PluriSIn #6, 2-hydroxy-2-(thiophen-2-yl)-2-phenylacetic acid 4-methyl-N′-phenylhydrazide] | without exhibiting any detectable effect | possible direct inhibitors of SCD1 |  |  |  |  | 
CNC(=O)c1cccc(NC(=O)N2CCC(Oc3ccccc3Cl)CC2)c1 [A939572, 4-(2-chlorophenoxy)-N-(3-(methylcarbamoyl)-phenyl)piperidine-1-carboxamide, reference compound] |  |  |  | protective effect against teratoma formation |  |  | 
